This is an account of results in ChEMBL document CHEMBL5050844 (2019).

Assay [1] can be described thus: Induction of anti-CD3 antibodies-stimulated human T cell activation at 8 uM assessed fold increase in CD25 expression measured by ELISA assay. Also: reference of the scale not given here. Type of assay: functional, T cell line.
Assay [2] concerns the target T1, E3 ubiquitin-protein ligase CBL-B (Homo sapiens, UniProt Q13191). Description: Inhibition of N-terminal Avi-tagged human CBL-B (36 to 427 residues) incubated with 60 nM Src kinase for 1.5 hrs followed by incubation with fluorescently labeled UbcH5B-Ub for 1 hr and measured by TR-FRET assay. It counts as single protein.
Assay [3] is described as follows: Induction of anti-CD3/CD28 antibodies-stimulated human T cell activation at 0.3 uM assessed fold increase in CD25 expression measured by ELISA assay. It counts as functional, T cell line.
Assay [4] can be described thus: Induction of anti-CD3/CD28 antibodies-stimulated human T cell activation at 4 uM assessed fold increase in CD25 expression measured by ELISA assay. It counts as functional, T cell line.
Assay [5] in a line: Induction of anti-CD3/CD28 antibodies-stimulated human T cell activation at 1 uM assessed fold increase in CD25 expression measured by ELISA assay. It counts as functional, T cell line.
Assay [6] can be described thus: Induction of anti-CD3/CD28 antibodies-stimulated human T cell activation at 4 uM assessed fold increase in IL-2 secretion measured by ELISA assay. Type of assay: functional, T cell line.
The nature of assay [7]: Induction of anti-CD3/CD28 antibodies-stimulated human T cell activation at 0.3 uM assessed fold increase in IL-2 secretion measured by ELISA assay. It counts as functional, T cell line.
Assay [8] can be described thus: Induction of anti-CD3 antibodies-stimulated human T cell activation at 1 uM assessed fold increase in IL-2 secretion measured by ELISA assay. Also: reference of the scale not given here. It counts as functional, T cell line.
Assay [9] is described as follows: Induction of anti-CD3 antibodies-stimulated human T cell activation at 8 uM assessed fold increase in IL-2 secretion measured by ELISA assay. Also: reference of the scale not given here. Type of assay: functional, T cell line.
Assay [10] can be described thus: Induction of anti-CD3 antibodies-stimulated human T cell activation at 1 uM assessed fold increase in CD25 expression measured by ELISA assay. Also: reference of the scale not given here. It counts as functional, T cell line.
The target in assay [11] is T1, E3 ubiquitin-protein ligase CBL-B. The experiment in a line: Binding affinity towards N-terminal biotinylated Avi-tagged human CBL-B (36 to 427 residues) measured by surface plasmon resonance assay.
A short description of assay [12]: Induction of anti-CD3/CD28 antibodies-stimulated human T cell activation at 1 uM assessed fold increase in IL-2 secretion measured by ELISA assay. It counts as functional, T cell line.

T1 sequence (Q13191 whole entry, the tested form may be a part): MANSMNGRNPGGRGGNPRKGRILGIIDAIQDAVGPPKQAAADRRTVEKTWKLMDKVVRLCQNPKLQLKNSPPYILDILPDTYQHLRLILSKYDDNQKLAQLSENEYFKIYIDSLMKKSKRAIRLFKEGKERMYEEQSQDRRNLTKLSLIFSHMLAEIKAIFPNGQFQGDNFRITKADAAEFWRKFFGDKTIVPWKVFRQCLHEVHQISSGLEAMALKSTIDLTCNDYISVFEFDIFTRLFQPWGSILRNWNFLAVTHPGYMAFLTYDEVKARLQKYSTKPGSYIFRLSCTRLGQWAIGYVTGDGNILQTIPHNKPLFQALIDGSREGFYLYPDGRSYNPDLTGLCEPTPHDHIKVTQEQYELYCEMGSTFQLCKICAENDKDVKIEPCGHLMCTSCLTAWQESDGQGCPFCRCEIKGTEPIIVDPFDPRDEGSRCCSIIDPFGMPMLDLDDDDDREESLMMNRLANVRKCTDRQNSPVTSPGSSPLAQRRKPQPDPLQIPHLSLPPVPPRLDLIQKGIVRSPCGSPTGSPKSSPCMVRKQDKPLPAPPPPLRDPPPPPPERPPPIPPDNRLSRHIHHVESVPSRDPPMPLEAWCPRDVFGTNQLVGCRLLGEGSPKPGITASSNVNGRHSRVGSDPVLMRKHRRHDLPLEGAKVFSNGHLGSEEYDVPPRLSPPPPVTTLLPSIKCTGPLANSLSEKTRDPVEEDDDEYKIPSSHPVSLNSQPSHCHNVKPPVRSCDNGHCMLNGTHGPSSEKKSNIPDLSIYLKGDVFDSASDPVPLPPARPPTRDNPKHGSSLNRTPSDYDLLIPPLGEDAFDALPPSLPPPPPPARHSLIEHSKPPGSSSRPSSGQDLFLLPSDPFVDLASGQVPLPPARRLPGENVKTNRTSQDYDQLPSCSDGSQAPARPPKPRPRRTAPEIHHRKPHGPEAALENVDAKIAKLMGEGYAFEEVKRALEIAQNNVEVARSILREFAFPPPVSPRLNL

`CC(O)c1cc2c(c(C(F)(F)F)c1)CN(c1cccc([C@H](C)Cc3nncn3C)c1)C2=O` (stereo partly drawn): the “fold change (FC)” value is on record as “>=1.001” in [1]; 1.01 in [3]; 1.31 in assay [4]; 1.31 in [5]; “>=7.5” in assay [6]; 2.51 in [7]. For the same compound, the “fold change (FC)” value was 0.151 in assay [8], “>=0.201” in assay [9], 0.801 in assay [10] and 5 in assay [12]. The compound also showed an IC50 in [2] below 0.1 µM. The same compound gave a Kd in assay [11] below 0.1 µM.

As for `C[C@H](Cc1nncn1C)c1cccc(N2Cc3c(cc(CN4CC[C@@H](F)C4)cc3C(F)(F)F)C2=O)c1`, the “fold change (FC)” value is “>=1.001” in [1]; 1.01 in assay [3]; 1.31 in assay [4]; 1.01 in assay [5]; “>=7.5” in [6]; 5 in [7]. Moreover, the “fold change (FC)” value is on record as “>=0.201” in assay [8], “>=0.201” in assay [9], “>=1.001” in assay [10] and “>=7.5” in assay [12]. Further, the IC50 in assay [2] is below 0.1 µM. The same compound showed a Kd in assay [11] below 0.1 µM.

As to `Cn1cnnc1CC(C)(C)c1cccc(N2Cc3c(cc(C4CC4)cc3C(F)(F)F)C2=O)c1`, the “fold change (FC)” value in assay [1] is reported as “>=1.001”; in [3] it was 1.01; in [4] it was 1.31; in [5], 1.01; in assay [6], 5; in [7] it was 1.01. Also, the “fold change (FC)” value in [8] is 0.101; in [9], “>=0.201”; in assay [10], 0.801; in assay [12], 2.51. The IC50 in [2] is below 0.1 µM. Also, the Kd in assay [11] is below 0.1 µM.

`Cn1cnnc1C(F)(F)[C@](C)(F)c1cccc(N2Cc3c(cc(CN4CC[C@H](S(C)(=O)=O)C4)cc3C(F)(F)F)C2=O)c1`: the “fold change (FC)” value was “>=1.001” in assay [1]; 1.01 in assay [3]; 1.01 in assay [4]; 1.01 in [5]; “>=7.5” in [6]; 2.51 in [7]. The “fold change (FC)” value was 0.101 in [8], “>=0.201” in assay [9], 0.801 in assay [10] and 2.51 in assay [12]. Further, the IC50 in assay [2] was below 0.1 µM. In addition, the Kd in [11] was below 0.1 µM.

With `C[C@H](Cc1nncn1C)c1cccc(N2Cc3c(cc(CN4C[C@@H](O)[C@H](F)C4)cc3C(F)(F)F)C2=O)c1`, the “fold change (FC)” value in assay [1] is “>=1.001”; in [3], 1.01; in assay [4] it was 1.31; in [5] it was 1.31; in assay [6], “>=7.5”; in assay [7] it was 2.51. Also, the “fold change (FC)” value in assay [8] is reported as “>=0.201”; in assay [9], “>=0.201”; in assay [10] it was “>=1.001”; in assay [12], “>=7.5”. The compound further showed an IC50 in assay [2] below 0.1 µM. Moreover, in assay [11], the Kd is below 0.1 µM.

With `C[C@H](Cc1nncn1C)c1cccc(N2Cc3c(cc(CN4CCC(F)(F)C4)cc3C(F)(F)F)C2=O)c1`, the “fold change (FC)” value in assay [1] is recorded as “>=1.001”; in [3], 1.01; in assay [4] it was 1.31; in assay [5] it was 1.01; in [6], “>=7.5”; in assay [7], 2.51. Also, the “fold change (FC)” value was 0.151 in assay [8], “>=0.201” in assay [9], “>=1.001” in assay [10] and 5 in [12]. Moreover, the IC50 in [2] is below 0.1 µM. In assay [11], this compound had a Kd below 0.1 µM.

On to `CCOc1cc([C@H](C)Cc2nncn2C)cc(N2Cc3c(cccc3C(F)(F)F)C2=O)n1`, for which the “fold change (FC)” value in [1] is on record as “>=1.001”; in [3], 1.01; in [4], 1.31; in assay [5], 1.31; in [6], “>=7.5”; in assay [7] it was 2.51. Further, the “fold change (FC)” value is given as 0.151 in [8], “>=0.201” in assay [9], “>=1.001” in [10] and 5 in [12]. Besides, the IC50 in assay [2] is below 0.1 µM. The compound also showed a Kd in [11] below 0.1 µM.

With `C[C@H](Cc1nncn1C)c1cccc(N2Cc3c(cc(CN4CC(F)(F)C4)cc3C(F)(F)F)C2=O)c1`, the “fold change (FC)” value in [1] is listed as “>=1.001”; in assay [3], 1.01; in [4], 1.31; in assay [5] it was 1.31; in [6], “>=7.5”; in [7], 5. Also, the “fold change (FC)” value in [8] is 0.151; in assay [9] it was “>=0.201”; in [10] it was “>=1.001”; in [12], “>=7.5”. In assay [2], this compound had an IC50 below 0.1 µM. Moreover, in [11], the Kd is below 0.1 µM.

`Cc1n[nH]c(C)c1-c1cc2c(c(C(F)(F)F)c1)CN(c1cccc([C@H](C)Cc3nncn3C)c1)C2=O`: the “fold change (FC)” value in [1] is “>=1.001”; in [3] it was 1.31; in assay [4], “>=1.76”; in assay [5], 1.51; in [6], “>=7.5”; in [7], 2.51. In addition, the “fold change (FC)” value in [8] is reported as “>=0.201”; in assay [9], “>=0.201”; in assay [10], “>=1.001”; in [12], “>=7.5”. Besides, in assay [2], the IC50 was below 0.1 µM. Further, the Kd in assay [11] is below 0.1 µM.

For `CC(c1cc2c(c(C(F)(F)F)c1)CN(c1cccc([C@H](C)Cc3nncn3C)c1)C2=O)N1CC[C@H](O)C1` (stereo partly drawn), the “fold change (FC)” value in assay [1] was “>=1.001”; in assay [3], 1.31; in assay [4], 1.51; in [5], 1.31; in assay [6], “>=7.5”; in [7] it was 2.51. Besides, the “fold change (FC)” value in assay [8] is recorded as 0.151; in [9] it was “>=0.201”; in [10], “>=1.001”; in assay [12], “>=7.5”. This compound also displayed an IC50 in assay [2] below 0.1 µM. For the same compound, in assay [11], the Kd was below 0.1 µM.

Regarding `Cn1cnnc1CC1(c2cccc(N3Cc4c(cc(CN5CCC(F)(F)C5)cc4C(F)(F)F)C3=O)c2)COC1`, the “fold change (FC)” value is on record as “>=1.001” in [1]; 1.01 in assay [3]; 1.01 in assay [4]; 1.01 in [5]; “>=7.5” in assay [6]; 2.51 in assay [7]. Moreover, the “fold change (FC)” value in [8] was “>=0.201”; in assay [9] it was “>=0.201”; in assay [10], “>=1.001”; in assay [12] it was “>=7.5”. In addition, in [2], the IC50 is below 0.1 µM. This compound had a Kd in assay [11] below 0.1 µM.

As to `Cc1[nH]ncc1-c1cc2c(c(C(F)(F)F)c1)CN(c1cccc([C@H](C)Cc3nncn3C)c1)C2=O`, the “fold change (FC)” value in assay [1] is “>=1.001”; in [3] it was 1.31; in assay [4] it was 1.51; in [5], 1.51; in [6], “>=7.5”; in assay [7], 2.51. Further, the “fold change (FC)” value was 0.151 in assay [8], “>=0.201” in assay [9], 0.801 in assay [10] and 5 in assay [12]. This compound displayed an IC50 in [2] below 0.1 µM. The compound also displayed a Kd in assay [11] below 0.1 µM.

For the compound `C[C@H](Cc1nncn1C)c1cccc(N2Cc3c(cc(CN4CC(O)C(F)(F)C4)cc3C(F)(F)F)C2=O)c1` (stereo partly drawn), the “fold change (FC)” value in assay [1] is “>=1.001”; in assay [3], 1.01; in assay [4], 1.31; in assay [5], 1.31; in assay [6], “>=7.5”; in assay [7], 2.51. The “fold change (FC)” value is 0.101 in [8], “>=0.201” in assay [9], “>=1.001” in assay [10] and 5 in [12]. The compound further showed an IC50 in assay [2] below 0.1 µM. The compound also displayed a Kd in [11] below 0.1 µM.

Consider `C[C@H](Cc1nncn1C)c1cccc(N2Cc3c(cc(C(=O)N4CC[C@H](O)C4)cc3C(F)(F)F)C2=O)c1`, for which the “fold change (FC)” value in [1] is “>=1.001”; in assay [3], 1.01; in assay [4], 1.31; in assay [5], 1.01; in assay [6] it was “>=7.5”; in assay [7], 1.01. Also, the “fold change (FC)” value in assay [8] was 0.151; in assay [9], “>=0.201”; in assay [10] it was 0.801; in assay [12], 2.51. Further, the IC50 in assay [2] was below 0.1 µM. Also, the Kd in [11] was below 0.1 µM.
